Measurements taken from ChEMBL document CHEMBL5260832, “Hepatoprotective natural triterpenoids” (Eur J Med Chem, 2018).

tested on: Mus musculus; experiment: Hepatoprotective activity against D-GaIN/CCl4 induced liver injury mouse model assessed as reduction in GPT level at 30 microg/kg, iv relative to control; assay type: functional; parameters: scale not given: the % may be the effect or the level left; conditions: dose 30 µg/kg

Q: Which Activity does the source give for `CC(C)=CCC[C@](C)(O[C@@H]1O[C@H](CO)[C@@H](O)[C@H](O)[C@H]1O)[C@H]1CC[C@]2(C)[C@@H]1[C@H](O)C[C@@H]1[C@@]3(C)CC[C@H](O)C(C)(C)[C@@H]3CC[C@]12C` here?
A: 76%

Q: With `CC(C)=CCC[C@](C)(O)[C@H]1CC[C@]2(C)[C@@H]1[C@H](O)C[C@@H]1[C@@]3(C)CC[C@H](O[C@@H]4O[C@H](CO)[C@@H](O)[C@H](O)[C@H]4O)C(C)(C)[C@@H]3CC[C@]12C` [GINSENOSIDE RH2] as the compound, how does the Activity read?
A: 31%

Q: For `CC(C)=CCC[C@](C)(O)[C@H]1CC[C@]2(C)[C@@H]1[C@H](O)C[C@@H]1[C@@]3(C)CC[C@H](O)C(C)(C)[C@@H]3[C@@H](O[C@@H]3O[C@H](CO)[C@@H](O)[C@H](O)[C@H]3O[C@@H]3O[C@H](CO)[C@@H](O)[C@H](O)[C@H]3O)C[C@]12C` [GINSENOSIDE RF], which Activity is on record?
A: 77%

Q: For `CC(C)=CCC[C@@](C)(O)[C@H]1CC[C@]2(C)[C@@H]1[C@H](O)C[C@@H]1[C@@]3(C)CC[C@H](O[C@@H]4O[C@H](CO)[C@@H](O)[C@H](O)[C@H]4O[C@@H]4O[C@H](CO)[C@@H](O)[C@H](O)[C@H]4O)C(C)(C)[C@@H]3CC[C@]12C`, which Activity is on record?
A: 34%

Q: Which Activity does the source give for `CC(C)=CCC[C@](C)(O)[C@H]1CC[C@]2(C)[C@@H]1[C@H](O)C[C@@H]1[C@@]3(C)CC[C@H](O[C@@H]4O[C@H](CO)[C@@H](O)[C@H](O)[C@H]4O[C@@H]4O[C@H](CO)[C@@H](O)[C@H](O)[C@H]4O)C(C)(C)[C@@H]3CC[C@]12C` here?
A: 63%

tested on: L02; experiment: Hepatoprotective activity against D-GaIN-induced cell damage in human HL7702 cells assessed as increase in cell survival at 10 uM relative to control; assay type: functional; conditions: not given

Q: For `CC(CC(=O)C[C@@H](C)[C@H]1C[C@H](O)[C@@]2(C)C3=C(C(=O)C[C@]12C)[C@@]1(C)CC[C@H](O)C(C)(C)[C@@H]1C[C@@H]3O)C(=O)O` (stereo partly drawn), which Activity is on record?
A: 76%

Q: With `C/C(CC(=O)CC(C)C(=O)O)=C1/CC(=O)[C@@]2(C)C3=C(C(=O)C[C@]12C)[C@@]1(C)CC[C@H](O)C(C)(C)[C@@H]1CC3=O` (stereo partly drawn) as the compound, how does the Activity read?
A: 55%

Q: With `CC(=O)[C@H]1CC(=O)[C@@]2(C)C3=C(C(=O)C[C@]12C)[C@@]1(C)CCC(=O)C(C)(C)[C@@H]1C[C@@H]3O` as the compound, how does the Activity read?
A: 58%

Q: Which Activity does the source give for `C/C(=C\CCC(C)(O)[C@H]1C[C@H](O)[C@@]2(C)C3=C(C(=O)C[C@]12C)[C@@]1(C)CC[C@H](O)C(C)(C)[C@@H]1C[C@@H]3O)C(=O)O` (stereo partly drawn) here?
A: 43%

Q: Which Activity does the source give for `C/C(=C/C(=O)CC(C)C(=O)O)[C@H]1CC(=O)[C@@]2(C)C3=C(C(=O)C[C@]12C)[C@@]1(C)CC[C@H](O)C(C)(C)[C@@H]1C[C@@H]3O` (stereo partly drawn) here?
A: 65%

Q: With `CC(CC(=O)C[C@@H](C)C1=CC(=O)[C@@]2(C)[C@@H]3C(=O)C[C@H]4C(C)(C)[C@@H](O)CC[C@]4(C)[C@H]3C(=O)C[C@]12C)C(=O)O` (stereo partly drawn) as the compound, how does the Activity read?
A: 75%

tested on: not listed separately; experiment: Antiproliferative activity against rat HSC-T6 cells assessed as reduction in cell viability incubated for 48 hrs by MTT assay; assay type: functional, cell-based; conditions: HSC-T6, 48 h

Q: Which IC50 does the source give for `C[C@@H]1O[C@@H](O[C@H]2[C@H](OC(=O)[C@]34CCC(C)(C)C[C@H]3C3=CC[C@@H]5[C@@]6(C)C[C@H](O)[C@H](O[C@@H]7O[C@H](CO)[C@@H](O)[C@H](O)[C@H]7O)[C@](C)(CO)[C@@H]6CC[C@@]5(C)[C@]3(C)C[C@H]4O)OC[C@H](O)[C@@H]2O)[C@H](O)[C@H](O)[C@H]1O[C@@H]1OC[C@@H](O)[C@H](O[C@@H]2OC[C@](O)(CO)[C@H]2O)[C@H]1O` here?
A: 1.04 µM

Q: With `CC1(C)CC[C@]2(N)C(=O)C[C@]3(C)C(=CC[C@@H]4[C@@]5(C)C[C@H](O)[C@H](O[C@@H]6O[C@H](CO)[C@@H](O)[C@H](O)[C@H]6O)C(CO)(CO)[C@@H]5CC[C@]43C)[C@@H]2C1` as the compound, how does the IC50 read?
A: 69.6 µM

Q: Which IC50 does the source give for `CC1(C)CC[C@]2(N)C(=O)C[C@]3(C)C(=CC[C@@H]4[C@@]5(C)C[C@H](O)[C@H](O)C(CO)(CO)[C@@H]5CC[C@]43C)[C@@H]2C1` here?
A: 5.27 µM

Q: Which IC50 does the source give for `C[C@@H]1O[C@@H](O[C@H]2[C@H](OC(=O)[C@]34CCC(C)(C)C[C@H]3C3=CC[C@@H]5[C@@]6(C)C[C@H](O)[C@H](O[C@@H]7O[C@H](CO)[C@@H](O)[C@H](O)[C@H]7O)C(CO)(CO)[C@@H]6CC[C@@]5(C)[C@]3(C)C[C@H]4O)OC[C@H](O)[C@@H]2O)[C@H](O)[C@H](O)[C@H]1O[C@@H]1OC[C@@H](O)[C@H](O)[C@H]1O` here?
A: 8.24 µM

Q: With `CC1(C)CC[C@]2(C(=O)O)[C@H](O)C[C@]3(C)C(=CC[C@@H]4[C@@]5(C)C[C@H](O)[C@H](O[C@@H]6O[C@H](CO)[C@@H](O)[C@H](O)[C@H]6O)C(CO)(CO)[C@@H]5CC[C@]43C)[C@@H]2C1` as the compound, how does the IC50 read?
A: 13.4 µM

Q: Which IC50 does the source give for `C[C@@H]1O[C@@H](O[C@H]2[C@H](OC(=O)[C@]34CCC(C)(C)C[C@H]3C3=CC[C@@H]5[C@@]6(C)C[C@H](O)[C@H](O[C@@H]7O[C@H](CO)[C@@H](O)[C@H](O)[C@H]7O)C(CO)(CO)[C@@H]6CC[C@@]5(C)[C@]3(C)C[C@H]4O)OC[C@H](O)[C@@H]2O)[C@H](O)[C@H](O)[C@H]1O[C@@H]1OC[C@@H](O)[C@H](O[C@@H]2OC[C@](O)(CO)[C@H]2O)[C@H]1O` [PLATYCODIN D] here?
A: 1.77 µM

tested on: not listed separately; experiment: Hepatotoxicity in D-GaIN induced in Wistar rat model hepatocyte assessed as reduction in PLA2 level; assay type: toxicity, cell-based; conditions: not given

Q: For `CC1(C)[C@@H](O[C@@H]2O[C@H](C(=O)O)[C@@H](O)[C@H](O)[C@H]2O[C@@H]2O[C@H](C(=O)O)[C@@H](O)[C@H](O)[C@H]2O)CC[C@]2(C)[C@H]3C(=O)C=C4[C@@H]5C[C@]6(C)C[C@@H](OC6=O)[C@]5(C)CC[C@@]4(C)[C@]3(C)CC[C@@H]12`, which IC50 is on record?
A: 32.2 µM

tested on: Hepatocyte; experiment: Hepatoprotective activity against D-GaIN/TNFalpha-induced cell death in mouse hepatocyte at 100 uM relative to control; assay type: functional, cell-based; conditions: Mus musculus, Hepatocyte

Q: With `CC1=C2C3=CC[C@@H]4[C@@]5(C)C[C@@H](O)[C@H](O)[C@@](C)(CO)[C@@H]5CC[C@@]4(C)[C@]3(C)CC[C@@]2(C(=O)O)CC[C@H]1C` as the compound, how does the IC50 read?
A: 51 µM

tested on: not listed separately; experiment: Hepatotoxicity in rat assessed as reduction in GPT level at 1.0 mg/mL measured after 48 hrs (reference value: 291 IU/L); assay type: toxicity; conditions: in vivo

Q: With `CC1(C)CC[C@]2(C(=O)O[C@@H]3O[C@H](CO[C@@H]4O[C@H](CO)[C@@H](O)[C@H](O)[C@H]4O)[C@@H](O)[C@H](O)[C@H]3O)CC[C@]3(C)C(=CC[C@@H]4[C@@]5(C)CC[C@H](O[C@@H]6O[C@H](CO)[C@@H](O)[C@H](O)[C@H]6O)[C@@](C)(C(=O)O)[C@@H]5CC[C@]43C)[C@@H]2C1` as the compound, how does the Activity read?
A: 279 IU/L

Q: With `CC1(C)CC[C@]2(C(=O)O[C@@H]3O[C@H](CO[C@@H]4O[C@H](CO)[C@@H](O)[C@H](O)[C@H]4O)[C@@H](O)[C@H](O[C@@H]4O[C@H](CO)[C@@H](O)[C@H](O)[C@H]4O)[C@H]3O)CC[C@]3(C)C(=CC[C@@H]4[C@@]5(C)CC[C@H](O[C@@H]6O[C@H](CO)[C@@H](O)[C@H](O)[C@H]6O)[C@@](C)(C(=O)O)[C@@H]5CC[C@]43C)[C@@H]2C1` as the compound, how does the Activity read?
A: 279 IU/L

Q: Which Activity does the source give for `CC1(C)CC[C@]2(C(=O)O[C@@H]3O[C@H](CO[C@@H]4O[C@H](CO)[C@@H](O)[C@H](O)[C@H]4O)[C@@H](O)[C@H](O[C@@H]4O[C@H](CO)[C@@H](O)[C@H](O)[C@H]4O)[C@H]3O)CC[C@]3(C)C(=CC[C@@H]4[C@@]5(C)CC[C@H](O)[C@@](C)(C(=O)O)[C@@H]5CC[C@]43C)[C@@H]2C1` here?
A: 279 IU/L

Q: Which Activity does the source give for `C[C@@]1(CO)CC[C@]2(C(=O)O[C@@H]3O[C@H](CO)[C@@H](O)[C@H](O)[C@H]3O)CC[C@]3(C)C(=CC[C@@H]4[C@@]5(C)CC[C@H](O)[C@@](C)(C(=O)O)[C@@H]5CC[C@]43C)[C@@H]2C1` here?
A: 206 IU/L

Q: For `CC1(C)CC[C@]2(C(=O)O[C@@H]3O[C@H](CO)[C@@H](O)[C@H](O)[C@H]3O)CC[C@]3(C)C(=CC[C@@H]4[C@@]5(C)CC[C@H](O)[C@@](C)(C(=O)O)[C@@H]5CC[C@]43C)[C@@H]2C1`, which Activity is on record?
A: 137 IU/L

species on record: Mus musculus; experiment: Hepatoprotective activity in CCl4-induced toxicity in liver injured mouse assessed as increase in inhibition of liver damage relative to control; assay type: functional; parameters: concentration or dose not given beside the values; conditions: not given

Q: For `C[C@H]1[C@H](C)CC[C@]2(C(=O)O)CC[C@]3(C)C(=CC(=O)[C@@H]4[C@@]5(C)C[C@@H](O)[C@H](O)[C@@](C)(CO)[C@@H]5CC[C@]43C)[C@H]12`, which Activity is on record?
A: 25.6%

Q: For `C[C@H]1[C@H](C)CC[C@]2(CO)CC[C@]3(C)C(=CC[C@@H]4[C@@]5(C)C[C@@H](O)[C@H](O)[C@@](C)(CO)[C@@H]5CC[C@]43C)[C@H]12`, which Activity is on record?
A: 39.7%

Q: With `COC(=O)[C@]12CC[C@@H](C)[C@H](C)[C@H]1C1=CC[C@@H]3[C@@]4(C)CC(=O)[C@H](O)[C@@](C)(COC(C)=O)[C@@H]4CC[C@@]3(C)[C@]1(C)CC2` as the compound, how does the Activity read?
A: 46.4%

Q: Which Activity does the source give for `COC(=O)[C@]12CC[C@@H](C)[C@H](C)[C@H]1C1=CC[C@@H]3[C@@]4(C)C[C@@H](OC(C)=O)[C@H](O)[C@@](C)(COC(C)=O)[C@@H]4CC[C@@]3(C)[C@]1(C)CC2` here?
A: 54.2%

Q: Which Activity does the source give for `CC(=O)OC[C@@]1(C)[C@@H]2CC[C@]3(C)[C@H](C(=O)C=C4[C@@H]5[C@@H](C)[C@H](C)CC[C@]5(C(=O)O)CC[C@]43C)[C@@]2(C)CC(=O)[C@@H]1O` here?
A: 35.9%

Q: For `CC(=O)OC[C@@]1(C)[C@@H]2CC[C@]3(C)[C@H](C(=O)C=C4[C@@H]5[C@@H](C)[C@H](C)CC[C@]5(C(=O)O)CC[C@]43C)[C@@]2(C)CC(=O)[C@@H]1OC(C)=O`, which Activity is on record?
A: 22%

tested on: Hepatocyte; experiment: Hepatoprotective activity against D-GaIN/TNFalpha -induced cell death in mouse hepatocyte assessed as inhibition of cell death; assay type: functional, cell-based; parameters: Activity: concentration or dose not given beside the values; conditions: not given

Q: Which Activity does the source give for `C[C@H]1C(=O)O[C@@H]2[C@H]1O[C@@]13O[C@]4(CC[C@@]5(C)C(=O)[C@@](C)(O)[C@]2(O)[C@@H]15)C[C@@]12OC(=O)C[C@@H]1OC(C)(C)[C@H]2C[C@@H](O)[C@@H]4C3=O` here?
A: 37.6%

Q: Which Activity does the source give for `C[C@@H]1C(=O)O[C@H]2[C@@H]1O[C@]13O[C@@]4(CC[C@]5(C)C(=O)[C@](C)(O)[C@@]2(O)[C@H]15)C[C@]12OC(=O)C[C@H]1OC(C)(C)[C@@H]2C[C@@H]1O[C@@]14C3=O` here?
A: 37.6%

Q: Which Activity does the source give for `C[C@@H]1C(=O)[C@]2(C)CC[C@@]34C[C@@]56OC(=O)C[C@@H]5OC(C)(C)[C@H]6C[C@@H](O)[C@@H]3C(=O)[C@]3(O[C@@H]5[C@@H](OC(=O)[C@@H]5C)[C@H]1[C@@H]32)O4` here?
A: 37.6%
